US20200218874A1, “A LABEL-FREE METHOD AND SYSTEM FOR MEASURING DRUG RESPONSE KINETICS OF THREE-DIMENSIONAL CELLULAR STRUCTURES” (AGENCY FOR SCIENCE, TECHNOLOGY AND RESEARCH, priority 2017, published 2020)
“Also recorded” adds a separate entry of the source.

Key:
[1] = test system: patient-derived tumour spheroids (head and neck cancer patient); assay: Label-free image-based drug response (LaFOS) of 3D tumour spheroids over time; assay type: cell-based, human; conditions: for response of tumour spheroids over time (LaFOS time-course): 24, 48 and 72 hours after treatment, 1 μM
Description: The examples used in this disclosure were generated by seeding 5000 cells into each well of Corning® 384 Well Black Clear Round Bottom Ultra-Low Attachment Spheroid Microplates. The assay plates were incubated at 37° C., 5% CO2 over 3 days to allow formation of the tumour spheroids. At 96 hours, the spheroids were imaged (labelled as “untreated” in the study) using a confocal microscope at 20× (Perkin Elmer Opera Phenix High Content Screening system) and then treated at 1 μM of the compounds (in DMSO). In total, 1,231 spheroids were generated and treated in duplicates at 96 hours with small molecule and kinase inhibitors from the Selleck Anti-cancer library and Selleck Kinase Inhibitor chemical library. The drug treated spheroids were imaged subsequently at 24, 48 and 72 hours after treatment.
Bright-field images of the 1,231 spheroids acquired at different time-points and z-planes were computationally segmented into proliferating (red), quiescent (green) and necrotic (yellow) zones through a method referred to as “Spheroid Peeling” (FIG. 5). Other imaging methods can also be used—Phase contrast imaging, electron microscopy, wide-field, dark-field, super-resolution microscopy, and many more.
Briefly, “Spheroid Peeling” involves repeatedly segmenting the spheroid image from the periphery to the core zone. The entire spheroid was first segmented as an object (hereby referred to as spheroid object) and cropped from the original well image (FIG. 6). An “inner core” was then identified from the spheroid object, hereby referred to as quiescent object. The proliferating zone was obtained by masking the quiescent object from the spheroid object. Similarly, the necrotic zone was identified as the “inner core” of the quiescent object, and the quiescent zone was obtained by masking the necrotic zone from the quiescent object. A number of image features were quantified from each of the proliferating, quiescent and necrotic zones, resulting in a total of 504 image descriptors for each spheroid. The “spheroid peeling” algorithm can be written in a number of languages or image analysis tool, such as Cell Profiler, MATLAB or ImageJ.
FIG. 19 is a flow diagram 700 showing a machine learning based training method in accordance with the present disclosure for generating a computational model (or learning model) of drug response in spheroids. Two sets of spheroids were generated for imaging and for viability measurement, respectively. The two sets of spheroids were treated with the same drugs. For feasibility testing, a training set of 1,231 spheroids 1902 was generated. At 72 hours after drug treatment, acquisition 1904 of bright-field images 1906 was obtained. As data preprocessing 708, “Spheroid Peeling” 1910 was applied to obtain, through image feature quantification 1912, 504 image descriptors from the Proliferating, Quiescent and Necrotic zones of each tumour spheroid, resulting in over ˜600K image descriptors 1916 in total.
The learning process generated a computational model 1922 that can be perceived as a complex multi-feature numerical quantification of the drug response of the spheroids. Generating the computational model includes one or more of training the computational model or determining parameters of the computational model. […]

[2] = test system: HN137P PDX; assay: In vivo treatment of HN137P PDX-bearing mice; conditions: male mice n=5, 2 mg kg^−1 i.p. once every 2 days
Text: (§1) Generation and passaging of PDXs. Tumour samples were obtained from patients post-surgery after obtaining informed patient consent in accordance to SingHealth Centralized Institutional Review Board (CIRB: 2014/2093/B). Tumours were minced into 1 mm^3 fragments and suspended in a mixture of 5% Matrigel (Corning, cat. no. 354234) in DMEM/F12 (Thermo Fisher, cat. no. 10565-018). The tumour fragment mixtures were then implanted subcutaneously into the left and right flanks of 5-7 weeks old NSG (NOD.Cg-Prkdcscid II2rgtm1Wjl/SzJ) (Jackson Laboratory, stock no. 005557) mice, using 18-gauge needles. Tumours were excised and passaged when they reached 1.5 cm^3. […]
(§2) Gefitinib (Iressa) was prepared by dissolving a 250 mg clinical grade tablet (AstraZeneca) in sterile water containing 0.05% Tween-80 (Sigma-Aldrich, cat. no. P4780) to a concentration of 10 mg/mL and administered at a dosage of 25 mg/kg daily via oral gavage. […] The length and width of tumours were measured by caliper once every 2 days. […] The weight of tumour was not directly measured, but were estimated using volume where the density of tissue was assumed to be 1 g/cm^3. The ratio of the change in treated tumour volume (ΔT) to the average change in control tumour volume (ΔT/Average ΔC) at each time point was calculated as follows: […]

[3] = test system: HN137M PDX; assay: In vivo treatment of HN137M PDX-bearing mice; conditions: male mice n=5, 2 mg kg^−1 i.p. once every 2 days
Text: as §1, §2

[4] = test system: spheroids derived from a head and neck cancer patient; assay: Micrograph morphology of drug-treated patient-derived spheroids; assay type: cell-based, human; conditions: spheroids approximately 500 microns
Text: All three patient-derived spheroids are of similar sizes of approximately 500 microns.
On the other hand, morphological-based methods primarily use the size/volume or shape of the spheroids.

[5] = test system: HN120M PDX; assay: In vivo treatment of HN120M PDX-bearing mice; conditions: mice n=6, 5 mg kg^−1 i.p. once every 2 days
Text: as §1, §2

## Cn1c(=O)n(-c2ccc(C(C)(C)C#N)cc2)c2c3cc(-c4cnc5ccccc5c4)ccc3ncc21 [BEZ235]
[1]
  response of tumour spheroids over time (LaFOS time-course): remain unchanged; also recorded: unresponsive

## COCCn1c2c([n+](Cc3cnccn3)c1C)C(=O)c1ccccc1C2=O [YM155]
[2]
  anti-tumour effect in PDX (tumour volume vs vehicle): did not display significant sensitivity
[3]
  anti-tumour effect in PDX (tumour volume vs vehicle): significant anti-tumour effect

## COc1ncc(-c2ccc3nccc(-c4ccnnc4)c3c2)cc1NS(=O)(=O)c1ccc(F)cc1F [GSK2126458]
[1]
  response of tumour spheroids over time (LaFOS time-course): increasing efficacy
[1]; Homo sapiens, over the course of 72 hours, duplicate spheroids (R1 and R2), treated at 1 μM, read-out: inhibition rate (4-dimensional drug response of tumor spheroids)
  inhibition at 1 µM: 80%

## N.N.[Cl][Pt][Cl] [Cisplatin]
[4]; high concentration
  morphological structure of tumour spheroid: enlarged core zone
[4]; low concentration
  morphological structure of tumour spheroid: resembled that of the untreated spheroid

## COc1cc(N2CCC(N3CCN(C)CC3)CC2)ccc1Nc1ncc(Cl)c(Nc2ccccc2S(=O)(=O)C(C)C)n1 [NVP-TAE684]
[1]
  response of tumour spheroids over time (LaFOS time-course): increasing efficacy
[1]; over the course of 72 hours, duplicate spheroids (R1 and R2), treated at 1 μM
  inhibition rate (4-dimensional drug response of tumor spheroids): 60%

## CN1CC[C@H](c2c(O)cc(O)c3c(=O)cc(-c4ccccc4Cl)oc23)[C@H](O)C1 [Flavopiridol]
[5]
  efficacy in in vivo model (PDX): already validated in in vivo models
